The source of these data is patent publication US20030220521A1, “Renal-selective prodrugs for control of renal sympathetic nerve activity in the treatment of hypertension” (G.D. Searle & Co., priority 1989, published 2003).

Structures are written as SMILES.

Series [1] is described as follows: Assay IV: metabolism of conjugate to fusaric acid in rat kidney homogenate. The format is in vitro ADME. The method, then: A freshly excised rat kidney was homogenized in 10 ml cold buffer (100 mM Tris, 15 mM glycylglycine, pH 7.4) with a Polytron Tissue Homogenizer (Brinkmann). The resulting suspension, diluted with buffer, was incubated in the presence of the Ex. #859 conjugate at 37° C. At various times aliquots were removed, deproteinized with an equal volume of cold trichloroacetic acid (25%) and centrifuged. The supernatant was injected onto a C-18 reverse-phase HPLC column and eluted isocratically with a mixture of acetonitrile and water (20:80 v/v) containing trifluoroacetic acid (0.05%). Eluted compounds were monitored by absorbance at 254 nm and compared to standards run under identical conditions. In the assay using pure kidney enzyme homogenate, the Ex. #859 conjugate was also incubated under the same conditions as described except that 5 mg of gamma-glutamyl transpeptidase (Sigma, 23 units/mg) and 10 mg of acylase I (Sigma, 4800 units/mg) were added in place of the homogenate. Analysis by HPLC was performed in a manner identical to that used for the kidney homogenate experiment.

In series [2] the test system is Spontaneously Hypertensive Rats (SHR). Nature of the series: Assay VII: acute effects on arterial pressure in anesthetized SHR. Format: in vivo, rat. The conditions noted are these: for Mean arterial pressure: i.v.: fusaric acid and fusaric acid hydrazide 100 mg/kg, Ex. #859 250 mg/kg. The method, then: Mean arterial pressure effects of fusaric acid hydrazide (100 mg/kg, i.v.), fusaric acid (100 mg/kg, i.v.) and Ex. #859 conjugate (250 mg/kg, i.v.) are shown in Table XXVII during a vehicle control period and 60 min post-injection of compound in anesthetized SHR. Rats were prepared as described above, minus the renal artery flow probe.

Series [3] has as its system Male mongrel dogs. Briefly: Assay XII: acute i.v. effects on mean arterial pressure and renal blood flow in anesthetized dogs. The format is in vivo, dog. How it is done: This experiment was run to determine the renal selectivity of conjugate of the invention in dogs. Male mongrel dogs (15-20 kg/n=8; Antech, Inc., Barnhard, Mo.) were anesthetized with sodium pentobarbital (30 mg/kg as i.v. bolus, and 4-6 mg/kg/hr infusion) and catheters were placed in the femoral veins for compound injection or pentobarbital infusion, and the femoral artery for arterial pressure recording. An electromagnetic flow probe (Carolina Medical Electronics, Inc., King, N.C.) was placed around the left renal artery for measurement of renal blood flow. Renal blood flow and arterial pressure were recorded on a Gould chart recorder. After surgery, 20-30 minutes were allowed for variables to stabilize. […] Variables were monitored for the next three hours. Results are shown in Table XXXIV and FIGS. 14 and 15.

For series [4], the system named is rats, heart and kidneys. Briefly: Assay X: catecholamine analysis of heart and kidney tissue after 5 days of infusion. Format: in vivo, rat. The method, then: Following 5 days of infusion, the kidney was exposed through a small flank incision, made in the anesthetized rat, and the renal artery and vein were ligated. Following this the kidney was rapidly excised distal to the ligation and frozen in liquid nitrogen. Similarly, the heart was excised and frozen subsequent to the removal of both kidneys. The frozen tissues were stored in closed containers at −80° C. Tissue samples were thawed on ice and their weight recorded prior to being placed in a flat bottom tube. The cold extraction solvent (2 ml/g tissue) was then added and the sample was homogenized with a Polytron. Extraction Solvent: 0.1 M perchloric acid (3 ml of 70% PCA to 500 ml); 0.4 mM Na metabisulphite (38 mg/500 ml). The volume was then measured and 0.05 ml of a 1 uM/L solution of dihydroxybenzylamine (DHBA) in extraction solvent was added for every 0.95 ml of homogenate to yield a 50 nM/L internal standard concentration. The homogenate was then mixed and centrifuged at 4° C., 3000 rpm for 35 minutes. A 2 ml aliquot of the supernatant was then neutralized by adding 0.5 ml of 2 M Tris, pH 8.8 and mixing. The sample was then placed on an alumina column (40 mg, Spe-ed CAT cartridge; Applied Separations; Bethlehem, Pa.) and the catecholamines were bound, washed and eluted using a vacuum manifold system (Adsorbex SPU, EM Science, Cherry Hill, N.J.) operating at ca. 4 ml/min. until the column was dry. Washes of 1 ml H20—0.5 ml MeOH—1 ml H20 were followed by elution with 1 ml of extraction solvent. A 200 μl sample of the eluant was injected onto a C-18 reversed phase analytical HPLC column, 5 um, 4.6 mm×250 mm (e.g., Beckman #235335, LKB 2134-630 Spherisorb ODS-2) and eluted with a recycled mobile phase run at ambient temperature and a flow rate of 0.5 ml/min (ca. 75 bar). Mobile Phase: 0.02 M Na2HP04 in 75/25(v/v) H20/MeOH 0.007% SDS pH 3.5 (conc. H3P04). The separated catecholamines were detected with a LKB 2143 electrochemical detector at a potential setting of 500 mV using a teflon flow cell spacer of 2.2 μl and a time constant of 2 sec. Peak heights were measured and recorded along with the chromatogram tracing using a Spectra-Physics 4270 integrator. […] The resulting factor (calculated for each sample) was used to correct for losses due to dilution, non-specific binding to the tissue precipitate, incomplete elution, etc. Concentrations were calculated by multiplying the peak heights for Epi, NE and DA by that samples correction factor and then dividing this value by the peak height of the respective standard. […] This value is multiplied by the volume of the homogenate (determined previously) to get the total catecholamine content of the tissue expressed in moles/g tissue. […]

The mark [5] stands for this setting: 7 mg/kg, 1 hour after injection.
[6] abbreviates: 7 mg/kg, 2 hour after injection.
Setting [7] is: 7 mg/kg, 3 hour after injection.
The mark [8] stands for this setting: 20 mg/kg i.v., 1 hour after injection.
The mark [9] stands for this setting: 20 mg/kg i.v., 2 hour after injection.
[10] abbreviates: 20 mg/kg i.v., 3 hour after injection.
The mark [11] stands for this setting: 60 mg/kg i.v., 1 hour after injection.
Setting [12] is: 60 mg/kg i.v., 2 hour after injection.
Where [13] appears, read: 60 mg/kg i.v., 3 hour after injection.

For the compound `CCCCc1ccc(C(=O)NNC(=O)CCC(NC(C)=O)C(=O)O)nc1` [Ex. #859, N-acetyl-L-glutamic acid, 5-[(5-butyl-2-pyridinyl)-carbonyl]hydrazide], in series [1] (kidney homogenate, 37° C), the “amount of fusaric acid liberated on incubation” value is on record as “linear increase”. Besides, the “other metabolites observed (fusaric acid hydrazide, gamma-glutamyl fusaric acid hydrazide)” value in series [1] (kidney homogenate, 37° C) was “No fusaric acid hydrazide or gamma-glutamyl fusaric acid hydrazide was observed”. Besides, the Mean arterial pressure came out at 146 ± 15 mmHg in series [2] (60 MIN post-injection); 151 ± 9 mmHg in series [2] (ZERO (vehicle control period)); 116 ± 5 mmHg in series [3] (setting [5]); 113 ± 4 mmHg in series [3] (setting [6]); 114 ± 4 mmHg in series [3] (setting [7]); 114 ± 6 mmHg in series [3] (7 mg/kg, time zero). Also, the “Mean arterial pressure” value in series [3] (setting [8]) was 124 ± 2 mmHg; in series [3] (setting [9]), 125 ± 3 mmHg; in series [3] (setting [10]) it was 125 ± 4 mmHg; in series [3] (20 mg/kg i.v., time zero), 120 ± 3 mmHg; in series [3] (setting [11]), 124 ± 1 mmHg; in series [3] (setting [12]), 126 ± 3 mmHg. Further, the “Mean arterial pressure” value in series [3] (setting [13]) was found to be 120 ± 4 mmHg; in series [3] (60 mg/kg i.v., time zero) it was 123 ± 3 mmHg. Also, in series [2] (i.v., 60 min post-injection), the “hypotensive effect / effect on mean arterial pressure” value is given as “no effect”. The “Renal Blood Flow” value in series [3] (setting [5]) came to 92 ± 5 mL/min; in series [3] (setting [6]), 111 ± 14 mL/min; in series [3] (setting [7]) it was 118 ± 23 mL/min; in series [3] (7 mg/kg, time zero), 92 ± 5 mL/min; in series [3] (setting [8]), 107 ± 14 mL/min; in series [3] (setting [9]), 122 ± 20 mL/min. The “Renal Blood Flow” value was 126 ± 24 mL/min in series [3] (setting [10]); 88 ± 11 mL/min in series [3] (20 mg/kg i.v., time zero); 145 ± 21 mL/min in series [3] (setting [11]); 168 ± 28 mL/min in series [3] (setting [12]); 176 ± 32 mL/min in series [3] (setting [13]); 131 ± 21 mL/min in series [3] (60 mg/kg i.v., time zero). Also, the “heart norepinephrine concentration relative to vehicle” value in series [4] is reported as “only fusaric acid decreased heart norepinephrine concentration”. Moreover, the “kidney norepinephrine concentration relative to vehicle” value in series [4] is reported as “decreased kidney norepinephrine concentration”.

On to `CCCCc1ccc(C(=O)O)nc1` [Fusaric Acid, 5-n-butylpicolinic acid], for which the “stability of liberated fusaric acid” value in series [1] (kidney homogenate incubation conditions) is “remains stable”. In series [2] (60 MIN post-injection), this compound gave a Mean arterial pressure of 110 ± 21 mmHg. For the same compound, the Mean arterial pressure in series [2] (ZERO (vehicle control period)) came to 164 ± 10 mmHg. Also, in series [4], the “heart norepinephrine concentration relative to vehicle” value is recorded as “decreased heart norepinephrine concentration” and the “kidney norepinephrine concentration relative to vehicle” value is “decreased kidney norepinephrine concentration”.
